Holding throughout (format): cell-based
Experiment [1] deals with T1, EGFR L858R (Ba/F3 cells) (Homo sapiens, UniProt P00533, L858R).
T1 construct: expressed in transfected cells; host or cells: Ba/F3 (murine pro-B cells), retroviral transduction, puromycin selection, IL3-independent pool
In words: Inhibitor activity on EGFR-dependent cell growth (CellTiter-Glo, 72 h), Ba/F3 EGFR L858R. Conditions: read-out: BaF3 L858R IC50. The method in brief:
(§1)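 Ba/F3, retrovirally transduced, puromycin-selected, grown without IL3; cells/well: L858R 400, L858R/C797S 600, exon 19del 800, FQEA 800. Cpds from 10 mM DMSO stock, 3-fold ×10 dilution, 120 nL per well; 72 h. CTG readout; IC50 via Hill equation.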
(In general: In ATP-based viability assays light output follows the ATP content of the culture.)

The target of experiment [2] is T2, EGFR exon 19del (Ba/F3 cells) (Homo sapiens, UniProt P00533). In words: Inhibitor activity on EGFR-dependent cell growth (CellTiter-Glo, 72 h), Ba/F3 EGFR exon 19del. Conditions: Ba/F3 EGFR exon 19del cell growth, read-out: BaF3 Del19 IC50. The method in brief:
as §1

Experiment [3] deals with T3, EGFR L858R/C797S (Ba/F3 cells) (Homo sapiens, UniProt P00533, C797S/L858R).
T3 construct: expressed in transfected cells; host or cells: Ba/F3 (murine pro-B cells), retroviral transduction, puromycin selection, IL3-independent pool
In words: Inhibitor activity on EGFR-dependent cell growth (CellTiter-Glo, 72 h), Ba/F3 EGFR L858R/C797S. To be noted: read-out: BaF3 L858R/C797S IC50. The text has this:
Example A. Inhibitor Activity on EGFR-Dependent Cell Growth
Cell lines are generated by transducing Ba/F3 cells with retroviruses containing vectors with EGFR WT, EGFR L858R, EGFR exon 19del, EGFR L858R/C797S, EGFR exon 20 NPG Ins D770_N771, EGFR exon 20 ASV Ins V769_D770, EGFR exon 20 SVD Ins D770_N771, or EGFR exon 20 FQEA Ins A763_V764 genes and a puromycin selection marker. Transduced cells are selected with puromycin for 7 days and are then be transferred into culture media without Interleukin 3 (IL3). EGFR WT cells are maintained with supplemental EGF. Surviving cells are confirmed to express EGFR by Western blot and maintained as a pool. The IC50 date were included in Table 6 and Table 7.
(§2) 1.1 Cells are harvested from flask into cell culture medium and the cell number counted.
1.2 Cells are diluted with culture medium to the desired density and 40 μL of cell suspension is added into each well of 384-well cell culture plate and the seeding density is 800 (FQEA, exon 19del), 600 (WT, NPG, L858R/C797S), or 400 (ASV, SVD, L858R) cells/well.
(§3) 2 Compound Preparation and Treatment
(§4) 2.1 Test compounds are dissolved to 10 mM in a DMSO stock solution. 45 μL of stock solution is transferred to a 384 polypropylene plate (pp-plate). Perform 3-fold, 10-point dilution via transferring 15 μL compound into 30 μL DMSO using a TECAN (EVO200) liquid handler.
(§5) 2.2 Spin plates at room temperature at 1,000 RPM for 1 minute.
2.3 Transfer 120 nL of diluted compound from compound source plate into the cell plate.
2.4 After compound treatment for 72 hours, perform CTG detection for compound treatment plates as described in “Detection” section.
3.1 Plates are removed from incubators and equilibrated at room temperature for 15 minutes.
3.2 Thaw the CellTiter Glo reagents and allow to equilibrate to room temperature before the experiment.
3.3 Add 40 μL of CellTiter-Glo reagent into each well (at 1:1 to culture medium). Then place the plates at room temperature for 30 min followed by reading on EnVision.
4.1 Inhibition activity is calculated following the formula below:
% Inhibition=100×(LumHC−LumSample)/(LumHC−LumLC) • where HC is obtained from cells treated with 0.1% DMSO only; and LC is obtained from culture medium only.
4.2 2. Calculate the IC50 by fitting the Curve using Xlfit (v5.3.1.3), equation 201.
Y=Bottom+(Top−Bottom)/(1+10^((Log IC50−X)*HillSlope))

Experiment [4] deals with T3, EGFR L858R/C797S (Ba/F3 cells). In words: Inhibitor activity on EGFR phosphorylation (pEGFR AlphaLISA, 2 h), Ba/F3 EGFR L858R/C797S.
Text: (§6) Example B. Inhibitor Activity on EGFR phosphorylation (pEGFR)
(§7) EGFR mutant Ba/F3 cells were generated by transduction with retrovirus containing vectors expressing EGFR L858R, EGFR exon 19del, EGFR L858R/C797S, EGFR exon 20 NPG Ins D770_N771, EGFR exon 20 ASV Ins V769_D770, or EGFR exon 20 SVD Ins D770_N771 genes along with a puromycin selection marker. Transduced cells are selected with puromycin for 7 days and are then be transferred into culture media without Interleukin 3 (IL3). Surviving cells are confirmed to express EGFR by Western blot and maintained as a pool. CUTO14 cells were obtained from Dr. Robert C. Doebele at the University of Colorado. The IC50 date are included in Table 6 and Table 7.
as §2
(§8) 1.2 Cells are diluted with culture medium to the desired density and 40 μL of cell suspension is added into each well of 384-well cell culture plate and the seeding density is 50K cells/well (Ba/F3) or 12.5K cells/well (CUTO14).
as §3, §4, §5
(§9) 2.3 Transfer 5 nL of diluted compound from compound source plate into the cell plate.
(§10) 2.4 After compound treatment for 2 hours, perform pEGFR detection by AlphaLISA for compound treatment plates as described in “Detection” section.
(§11) 3 Detection by pEGFR AlphaLISA (Perkin-Elmer)
(§12) 3.1 Plates are removed from incubators and equilibrated at room temperature for 10 minutes, and media was removed
(§13) 3.2 10 μL of lysis buffer is added and plates shaken at 600 rpm for 1 hr.
(§14) 3.3 Prepare acceptor mix just before use and dispense 5 μL of acceptor mix to all the wells. Shake 350 rpm for Ihr in the dark
(§15) 3.4 Prepare donor mix under low light conditions prior to use. Dispense 5 μL of donor mix to all the wells. Mix well on the shaker, seal and wrap in aluminum foil and incubate 1.5 hrs at room temperature in the dark
(§16) 3.5 Transfer 18.5 μL mixture to OptiPlate 384, and read using an Envision. The IC50 date were included in Table 6 and Table 7.
(In general: Bead proximity is the source of the signal in Alpha formats.)

In a further experiment the target is T4, EGFR WT (Ba/F3 cells) (Homo sapiens, UniProt P00533).
T4 construct: expressed in transfected cells; host or cells: Ba/F3 (murine pro-B cells), retroviral transduction, puromycin selection, maintained with EGF
In words: Inhibitor activity on EGFR-dependent cell growth (CellTiter-Glo, 72 h), Ba/F3 EGFR WT. Conditions: read-out: BaF3 WT IC50. Summed up:
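This growth assay used Ba/F3 cells that depend on wild-type EGFR and are kept in EGF without IL3. Compounds were made up as 10 mM DMSO stocks and diluted 3-fold over 10 points. 120 nL went onto 600 cells/well. After 72 hours, 40 μL CellTiter-Glo was added and luminescence read on EnVision after 30 min.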

Experiment [5] addresses T5, EGFR exon 20 NPG Ins D770_N771 (Ba/F3 cells) (Homo sapiens, UniProt P00533, INS770NPG).
T5 construct: expressed in transfected cells; host or cells: Ba/F3 (murine pro-B cells), retroviral transduction, puromycin selection, IL3-independent pool
In words: Inhibitor activity on EGFR-dependent cell growth (CellTiter-Glo, 72 h), Ba/F3 EGFR exon 20 NPG Ins. Conditions: read-out: BaF3 NPG IC50. Summed up:
(§17)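 IC50s derive from a sigmoidal dose–response fit of CellTiter-Glo signal. The signal was normalised between […]-treated cells and cell-free medium. Ba/F3 mutant-EGFR cells, seeded at 400–800/well depending on the line, had 72 h of exposure to a 10-point, 3-fold compound series.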

Experiment [6] concerns the target T6, EGFR exon 20 ASV Ins V769_D770 (Ba/F3 cells) (Homo sapiens, UniProt P00533, INS769ASV).
T6 construct: expressed in transfected cells; host or cells: Ba/F3 (murine pro-B cells), retroviral transduction, puromycin selection, IL3-independent pool
In words: Inhibitor activity on EGFR-dependent cell growth (CellTiter-Glo, 72 h), Ba/F3 EGFR exon 20 ASV Ins. Conditions: read-out: BaF3 ASV IC50. Summed up: as §17

For experiment [7], the target named is T7, EGFR exon 20 SVD Ins D770_N771 (Ba/F3 cells) (Homo sapiens, UniProt P00533, INS770SVD).
T7 construct: expressed in transfected cells; host or cells: Ba/F3 (murine pro-B cells), retroviral transduction, puromycin selection, IL3-independent pool
In words: Inhibitor activity on EGFR-dependent cell growth (CellTiter-Glo, 72 h), Ba/F3 EGFR exon 20 SVD Ins. To be noted: read-out: BaF3 SVD IC50. The method in brief:
as §17

The target in the next experiment is EGFR (CUTO14 cells) (Homo sapiens, UniProt P00533). In words: Inhibitor activity on EGFR phosphorylation (pEGFR AlphaLISA, 2 h), CUTO14 cells. The method in brief: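 Steps: seed cells (Ba/F3 50K, CUTO14 12.5K per well); add 3-fold, 10-point compound dilution; incubate 2 h; lyse 1 hr; add acceptor then donor beads (1.5 hrs, RT, dark); read AlphaLISA signal for IC50.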

Experiment [8] deals with T1, EGFR L858R (Ba/F3 cells). In words: Inhibitor activity on EGFR phosphorylation (pEGFR AlphaLISA, 2 h), Ba/F3 EGFR L858R.
Text: as §6, §7, §2, §8, §3, §4, §5, §9, §10, §11, §12, §13, §14, §15, §16

The target in experiment [9] is T2, EGFR exon 19del (Ba/F3 cells). In words: Inhibitor activity on EGFR phosphorylation (pEGFR AlphaLISA, 2 h), Ba/F3 EGFR exon 19del. Conditions: read-out: Del19 IC50 (pEGFR).
Text: as §6, §7, §2, §8, §3, §4, §5, §9, §10, §11, §12, §13, §14, §15, §16

In experiment [10] the target is T8, EGFR exon 20 FQEA Ins A763_V764 (Ba/F3 cells) (Homo sapiens, UniProt P00533, INS763FQEA).
T8 construct: expressed in transfected cells; host or cells: Ba/F3 (murine pro-B cells), retroviral transduction, puromycin selection, IL3-independent pool
In words: Inhibitor activity on EGFR-dependent cell growth (CellTiter-Glo, 72 h), Ba/F3 EGFR exon 20 FQEA Ins. To be noted: read-out: BaF3 FQEA IC50. Summed up: as §1

Each structure is given as a SMILES string. pIC50: −log10 of the molar value. Some results are limits rather than exact numbers.

T2 sequence (P00533 with tags, fused parts or gaps DEL746-750): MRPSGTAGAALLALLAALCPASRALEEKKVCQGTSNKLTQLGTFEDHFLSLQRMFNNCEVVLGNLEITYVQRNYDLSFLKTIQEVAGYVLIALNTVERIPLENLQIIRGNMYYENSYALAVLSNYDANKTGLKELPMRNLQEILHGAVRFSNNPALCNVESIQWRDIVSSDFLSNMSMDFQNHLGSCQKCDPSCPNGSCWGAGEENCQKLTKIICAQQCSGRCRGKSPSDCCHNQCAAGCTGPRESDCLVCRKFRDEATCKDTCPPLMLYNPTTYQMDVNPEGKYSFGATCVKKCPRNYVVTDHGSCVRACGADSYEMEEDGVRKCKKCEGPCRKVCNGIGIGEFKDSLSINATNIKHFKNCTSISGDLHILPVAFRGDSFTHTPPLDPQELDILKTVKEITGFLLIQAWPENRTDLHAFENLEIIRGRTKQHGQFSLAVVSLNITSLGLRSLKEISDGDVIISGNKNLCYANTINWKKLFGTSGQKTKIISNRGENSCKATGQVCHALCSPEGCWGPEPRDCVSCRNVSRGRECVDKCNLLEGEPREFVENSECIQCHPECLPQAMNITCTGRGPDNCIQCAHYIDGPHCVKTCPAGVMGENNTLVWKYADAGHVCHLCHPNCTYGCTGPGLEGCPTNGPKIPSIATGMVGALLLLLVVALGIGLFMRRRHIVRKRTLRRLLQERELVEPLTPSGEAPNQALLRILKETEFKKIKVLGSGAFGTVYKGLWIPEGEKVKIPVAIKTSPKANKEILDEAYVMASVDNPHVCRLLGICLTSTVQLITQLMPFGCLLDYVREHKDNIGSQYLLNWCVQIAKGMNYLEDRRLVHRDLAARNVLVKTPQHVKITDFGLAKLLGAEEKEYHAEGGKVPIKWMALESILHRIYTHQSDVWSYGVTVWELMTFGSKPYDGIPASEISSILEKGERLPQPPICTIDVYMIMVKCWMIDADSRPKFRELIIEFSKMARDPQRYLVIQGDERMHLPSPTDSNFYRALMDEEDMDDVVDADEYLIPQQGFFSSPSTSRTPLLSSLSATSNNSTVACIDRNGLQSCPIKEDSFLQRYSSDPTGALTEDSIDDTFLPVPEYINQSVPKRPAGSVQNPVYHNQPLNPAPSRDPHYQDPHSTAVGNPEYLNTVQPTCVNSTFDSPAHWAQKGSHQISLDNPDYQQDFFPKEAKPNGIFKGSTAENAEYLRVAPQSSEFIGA
T7 sequence (P00533 with tags, fused parts or gaps INS770SVD): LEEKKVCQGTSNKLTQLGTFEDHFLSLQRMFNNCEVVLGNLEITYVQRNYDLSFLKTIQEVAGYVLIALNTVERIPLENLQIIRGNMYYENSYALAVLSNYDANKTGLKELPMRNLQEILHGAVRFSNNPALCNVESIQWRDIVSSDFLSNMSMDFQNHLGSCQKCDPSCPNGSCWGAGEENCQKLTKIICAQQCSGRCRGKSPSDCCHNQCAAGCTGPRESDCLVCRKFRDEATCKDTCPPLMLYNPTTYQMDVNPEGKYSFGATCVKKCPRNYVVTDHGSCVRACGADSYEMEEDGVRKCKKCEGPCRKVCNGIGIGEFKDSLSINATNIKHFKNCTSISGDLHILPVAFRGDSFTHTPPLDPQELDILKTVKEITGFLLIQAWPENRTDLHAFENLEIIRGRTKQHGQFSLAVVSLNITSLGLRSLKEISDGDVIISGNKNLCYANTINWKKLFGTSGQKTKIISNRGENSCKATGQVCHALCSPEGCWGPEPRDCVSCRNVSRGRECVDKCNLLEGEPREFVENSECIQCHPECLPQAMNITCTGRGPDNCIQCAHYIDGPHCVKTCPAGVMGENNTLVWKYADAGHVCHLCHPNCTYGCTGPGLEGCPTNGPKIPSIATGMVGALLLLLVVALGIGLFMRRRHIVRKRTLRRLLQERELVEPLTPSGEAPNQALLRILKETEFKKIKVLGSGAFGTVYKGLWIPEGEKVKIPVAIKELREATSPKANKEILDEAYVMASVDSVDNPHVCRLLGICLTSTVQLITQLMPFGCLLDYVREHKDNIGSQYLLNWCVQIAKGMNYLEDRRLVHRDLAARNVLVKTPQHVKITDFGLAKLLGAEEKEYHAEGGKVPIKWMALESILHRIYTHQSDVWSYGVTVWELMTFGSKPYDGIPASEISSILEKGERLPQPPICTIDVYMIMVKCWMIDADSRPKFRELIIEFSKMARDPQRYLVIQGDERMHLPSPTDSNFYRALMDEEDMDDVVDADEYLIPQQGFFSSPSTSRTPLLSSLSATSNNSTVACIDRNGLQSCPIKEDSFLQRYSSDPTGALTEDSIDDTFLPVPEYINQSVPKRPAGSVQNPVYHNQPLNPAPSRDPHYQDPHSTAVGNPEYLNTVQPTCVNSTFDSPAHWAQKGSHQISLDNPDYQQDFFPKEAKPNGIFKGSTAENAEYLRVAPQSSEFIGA
T8 sequence (P00533 with tags, fused parts or gaps INS763FQEA): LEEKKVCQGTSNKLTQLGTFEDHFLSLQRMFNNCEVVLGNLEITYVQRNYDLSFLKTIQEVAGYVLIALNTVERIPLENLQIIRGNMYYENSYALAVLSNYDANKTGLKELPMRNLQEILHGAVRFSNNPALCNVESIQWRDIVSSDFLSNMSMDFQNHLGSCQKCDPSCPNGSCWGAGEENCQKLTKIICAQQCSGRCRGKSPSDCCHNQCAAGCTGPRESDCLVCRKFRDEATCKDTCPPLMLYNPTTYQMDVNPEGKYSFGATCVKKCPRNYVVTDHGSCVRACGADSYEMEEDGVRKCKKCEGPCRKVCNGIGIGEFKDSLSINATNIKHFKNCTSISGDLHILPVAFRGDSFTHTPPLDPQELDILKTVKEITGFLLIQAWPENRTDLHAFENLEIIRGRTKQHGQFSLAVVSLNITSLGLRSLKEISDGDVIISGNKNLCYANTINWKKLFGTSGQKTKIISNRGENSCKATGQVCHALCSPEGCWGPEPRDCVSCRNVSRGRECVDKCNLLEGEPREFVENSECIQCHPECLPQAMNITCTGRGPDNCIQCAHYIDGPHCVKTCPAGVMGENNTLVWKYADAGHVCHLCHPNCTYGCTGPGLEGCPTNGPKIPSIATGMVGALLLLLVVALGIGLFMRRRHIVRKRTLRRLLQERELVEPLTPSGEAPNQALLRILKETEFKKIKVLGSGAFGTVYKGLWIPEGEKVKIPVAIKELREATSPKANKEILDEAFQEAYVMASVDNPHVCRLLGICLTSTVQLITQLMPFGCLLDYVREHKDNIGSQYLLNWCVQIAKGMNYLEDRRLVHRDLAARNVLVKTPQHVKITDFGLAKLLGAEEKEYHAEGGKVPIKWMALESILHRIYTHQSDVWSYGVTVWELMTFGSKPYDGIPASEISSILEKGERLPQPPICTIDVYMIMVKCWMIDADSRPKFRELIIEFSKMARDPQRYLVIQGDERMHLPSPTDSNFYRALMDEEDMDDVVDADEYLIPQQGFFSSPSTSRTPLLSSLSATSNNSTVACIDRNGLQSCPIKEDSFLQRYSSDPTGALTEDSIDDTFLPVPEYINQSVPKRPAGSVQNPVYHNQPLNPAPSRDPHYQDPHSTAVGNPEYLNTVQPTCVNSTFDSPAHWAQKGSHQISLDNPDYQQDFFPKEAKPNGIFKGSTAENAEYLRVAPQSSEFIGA
T6 sequence (P00533 with tags, fused parts or gaps INS769ASV): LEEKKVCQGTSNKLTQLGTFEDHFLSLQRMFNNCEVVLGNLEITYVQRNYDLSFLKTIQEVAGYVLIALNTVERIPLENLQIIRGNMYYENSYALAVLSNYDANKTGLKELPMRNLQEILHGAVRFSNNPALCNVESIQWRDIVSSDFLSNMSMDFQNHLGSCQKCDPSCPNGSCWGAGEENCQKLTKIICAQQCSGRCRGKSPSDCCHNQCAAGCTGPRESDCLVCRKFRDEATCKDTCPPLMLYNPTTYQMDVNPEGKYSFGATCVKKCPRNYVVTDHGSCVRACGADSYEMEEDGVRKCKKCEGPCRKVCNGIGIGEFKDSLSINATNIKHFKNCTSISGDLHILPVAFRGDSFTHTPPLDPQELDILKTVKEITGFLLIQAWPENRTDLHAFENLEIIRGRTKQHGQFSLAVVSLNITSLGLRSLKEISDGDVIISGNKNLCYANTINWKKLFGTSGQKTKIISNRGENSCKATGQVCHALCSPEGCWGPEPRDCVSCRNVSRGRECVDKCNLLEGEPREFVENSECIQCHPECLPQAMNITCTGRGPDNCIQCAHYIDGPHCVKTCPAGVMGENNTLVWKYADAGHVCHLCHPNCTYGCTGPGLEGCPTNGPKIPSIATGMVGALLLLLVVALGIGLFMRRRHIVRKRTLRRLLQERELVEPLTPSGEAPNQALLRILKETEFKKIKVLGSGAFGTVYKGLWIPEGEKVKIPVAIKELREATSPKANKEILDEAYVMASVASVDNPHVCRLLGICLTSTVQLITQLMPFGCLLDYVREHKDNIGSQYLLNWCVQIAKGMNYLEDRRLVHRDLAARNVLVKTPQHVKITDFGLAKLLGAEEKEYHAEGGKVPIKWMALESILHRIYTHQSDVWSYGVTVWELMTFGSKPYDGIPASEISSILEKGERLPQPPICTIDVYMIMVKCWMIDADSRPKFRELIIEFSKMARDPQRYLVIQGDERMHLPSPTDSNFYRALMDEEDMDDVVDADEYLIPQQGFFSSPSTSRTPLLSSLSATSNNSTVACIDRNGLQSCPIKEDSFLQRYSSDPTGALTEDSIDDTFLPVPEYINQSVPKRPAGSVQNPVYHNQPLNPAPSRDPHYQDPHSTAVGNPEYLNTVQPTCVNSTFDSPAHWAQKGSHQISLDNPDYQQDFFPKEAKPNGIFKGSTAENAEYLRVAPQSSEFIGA

For the compound `COCC[C@H]1CNC(=O)c2c1[nH]c(-c1ccnc(C)n1)c2Nc1cccc(F)c1OC` [453b], the pIC50 was > 7.00 on EGFR L858R (Ba/F3 cells) [1]; > 7.00 in [2]; > 7.00 in experiment [3]; > 7.00 in [4]; 6.00 to 7.00 at EGFR WT (Ba/F3 cells); > 7.00 in experiment [5]. Further, the pIC50 (in experiment [6]; in experiment [7]; on EGFR (CUTO14 cells)) was > 7.00 each time.

For the compound `COc1c(Cl)cccc1Nc1c(-c2ccnc3ccc(OCC(F)F)nc23)[nH]c2c1C(=O)NCC2` [compound 733, 3-[(3-chloro-2-methoxyphenyl)amino]-2-[6-(2,2-difluoroethoxy)-1,5-naphthyridin-4-yl]-1H,5H,6H,7H-pyrrolo[3,2-c]pyridin-4-one], the pIC50 (on EGFR L858R (Ba/F3 cells) [1]; in experiment [2]; in [3]; against EGFR L858R (Ba/F3 cells) [8]; in experiment [9]; in [4]) was > 7.00 throughout. In addition, the pIC50 was 6.00 to 7.00 at EGFR WT (Ba/F3 cells), > 7.00 in experiment [6], > 7.00 in experiment [7] and > 7.00 in experiment [10].

As for `COc1c(Cl)cccc1Nc1c(-c2ccncc2F)[nH]c2c1C(=O)NCC21CCOCC1` [Compound 778, 3′-[(3-chloro-2-methoxyphenyl)amino]-2′-(3-fluoropyridin-4-yl)-5′,6′-dihydro-1′H-spiro[oxane-4,7′-pyrrolo[3,2-c]pyridin]-4′-one], the pIC50 was > 7.00 on EGFR L858R (Ba/F3 cells) [1]; > 7.00 in experiment [2]; > 7.00 in experiment [3]; > 7.00 against EGFR L858R (Ba/F3 cells) [8]; > 7.00 in experiment [9]; 6.00 to 7.00 in [4]. For the same compound, the pIC50 was < 6.00 on EGFR WT (Ba/F3 cells), 6.00 to 7.00 in [6], 6.00 to 7.00 in [7] and 6.00 to 7.00 in [10].

With `COCC[C@@H]1CNC(=O)c2c1[nH]c(-c1ccncn1)c2Nc1cccc(F)c1OC` [Compound 447a], the pIC50 (at EGFR L858R (Ba/F3 cells) [1]; in experiment [2]; in [3]; against EGFR L858R (Ba/F3 cells) [8]; in [9]; in [4]) was > 7.00 in each case. In addition, the pIC50 is 6.00 to 7.00 at EGFR WT (Ba/F3 cells), > 7.00 in [6], > 7.00 in experiment [7] and > 7.00 in experiment [10].

(Values after US20240101576A1, “HETEROCYCLIC INHIBITORS OF EGFR AND/OR HER2, FOR USE IN THE TREATMENT OF CANCER” (Scorpion Therapeutics, Inc., priority 2020, published 2024).)
